Measurements: ChEMBL document CHEMBL3885861, “Open TG-GATES”

Organism: Rattus norvegicus
Assay: Open TG-GATES - Regimen: Daily Repeat
Type: toxicity, organism-based, Sprague-Dawley
Design: regimen Daily Repeat, gender Male, age 6 weeks
Conditions: in vivo, po, 100 mg/kg, route gavage, dose level Low; for APTT / Bas / Eos / Fbg / Hb / Ht / Lym / MCHC / MCV / Mono / Neu / PT / Plat / RBC / Ret / WBC: tissue Blood; for KIDNEY_L / KIDNEY_R / KIDNEY_TOTAL: tissue Kidney; for LIVER: tissue Liver; for ALP / ALT / AST / BUN / CRE / Ca / Cl / DBIL / GLC / IP / K / LDH / Na / PL / RALB / TBIL / TG / TP / gamma-GTP: tissue Plasma

Structure (SMILES): CN(C)C(=N)N=C(N)N [METFORMIN]
- TERMINAL_BW (72 h, time 3 day): 222.9 g
- APTT (72 h, time 3 day): 16.7 s
- Bas (72 h, time 3 day): 0.2%
- Eos (72 h, time 3 day): 0.6%
- Fbg (72 h, time 3 day): 255 mg/dL
- Hb (72 h, time 3 day): 13.3 g/dL
- Ht (72 h, time 3 day): 39.3%
- Lym (72 h, time 3 day): 79%
- MCHC (72 h, time 3 day): 33.9%
- MCV (72 h, time 3 day): 64.1 fL
- Mono (72 h, time 3 day): 3%
- Neu (72 h, time 3 day): 16.6%
- PT (72 h, time 3 day): 12.6 s
- Plat (72 h, time 3 day): 114.7 x10_4/uL
- RBC (72 h, time 3 day): 612.6 x10_4/ul
- Ret (72 h, time 3 day): 6.7%
- WBC (72 h, time 3 day): 119.8 x10_2/uL
- KIDNEY_L (72 h, time 3 day): 0.9 g
- KIDNEY_R (72 h, time 3 day): 0.9 g
- KIDNEY_TOTAL (72 h, time 3 day): 1.9 g
- LIVER (72 h, time 3 day): 10.6 g
- ALP (72 h, time 3 day): 1574.6 IU/L
- ALT (72 h, time 3 day): 56.2 IU/L
- AST (72 h, time 3 day): 78.6 IU/L
- BUN (72 h, time 3 day): 15 mg/dL
- CRE (72 h, time 3 day): 0.2 mg/dL
- Ca (72 h, time 3 day): 11 mg/dL
- Cl (72 h, time 3 day): 105.6 meq/L
- DBIL (72 h, time 3 day): 0.012 mg/dL
- GLC (72 h, time 3 day): 173.2 mg/dL
- IP (72 h, time 3 day): 8.3 mg/dL
- K (72 h, time 3 day): 4 meq/L
- LDH (72 h, time 3 day): 80.4 IU/L
- Na (72 h, time 3 day): 141.8 meq/L
- PL (72 h, time 3 day): 141.6 mg/dL
- RALB (72 h, time 3 day): 2.6 g/dL
- TBIL (72 h, time 3 day): 0.03 mg/dL
- TG (72 h, time 3 day): 72.8 mg/dL
- TP (72 h, time 3 day): 5.5 g/dL
- gamma-GTP (72 h, time 3 day): 1 IU/L
- TERMINAL_BW ([…], time 7 day): 255.8 g
- TERMINAL_BW ([…], time 14 day): 319.6 g
- TERMINAL_BW ([…], time 28 day): 415.8 g
- APTT ([…], time 7 day): 18.8 s
- Bas ([…], time 7 day): 0%
- Eos ([…], time 7 day): 1%
- Fbg ([…], time 7 day): 277.8 mg/dL
- Hb ([…], time 7 day): 13.6 g/dL
- Ht ([…], time 7 day): 40.1%
- Lym ([…], time 7 day): 77.8%
- MCHC ([…], time 7 day): 33.9%
- MCV ([…], time 7 day): 63 fL
- Mono ([…], time 7 day): 3.4%
- Neu ([…], time 7 day): 17.8%
- PT ([…], time 7 day): 12.1 s
- Plat ([…], time 7 day): 130 x10_4/uL
- RBC ([…], time 7 day): 638 x10_4/ul
- Ret ([…], time 7 day): 5.1%
- WBC ([…], time 7 day): 97.2 x10_2/uL
- APTT ([…], time 14 day): 17.4 s
- Bas ([…], time 14 day): 0%
- Eos ([…], time 14 day): 1.2%
- Fbg ([…], time 14 day): 255.2 mg/dL
- Hb ([…], time 14 day): 13.9 g/dL
- Ht ([…], time 14 day): 40.1%
- Lym ([…], time 14 day): 77.6%
- MCHC ([…], time 14 day): 34.6%
- MCV ([…], time 14 day): 60.5 fL
- Mono ([…], time 14 day): 2.8%
- Neu ([…], time 14 day): 17.6%
- PT ([…], time 14 day): 12.2 s
- Plat ([…], time 14 day): 122.5 x10_4/uL
- RBC ([…], time 14 day): 662.2 x10_4/ul
- Ret ([…], time 14 day): 5%
- WBC ([…], time 14 day): 109.5 x10_2/uL
- APTT ([…], time 28 day): 17.7 s
- Bas ([…], time 28 day): 0.2%
- Eos ([…], time 28 day): 1%
- Fbg ([…], time 28 day): 259.2 mg/dL
- Hb ([…], time 28 day): 15 g/dL
- Ht ([…], time 28 day): 43%
- Lym ([…], time 28 day): 76.6%
- MCHC ([…], time 28 day): 34.8%
- MCV ([…], time 28 day): 56.3 fL
- Mono ([…], time 28 day): 3%
- Neu ([…], time 28 day): 18.6%
- PT ([…], time 28 day): 11.9 s
- Plat ([…], time 28 day): 100.3 x10_4/uL
- RBC ([…], time 28 day): 764.2 x10_4/ul
- Ret ([…], time 28 day): 2.6%
- WBC ([…], time 28 day): 134 x10_2/uL
- KIDNEY_L ([…], time 7 day): 1 g
- KIDNEY_R ([…], time 7 day): 1 g
- KIDNEY_TOTAL ([…], time 7 day): 2.1 g
- KIDNEY_L ([…], time 14 day): 1.3 g
- KIDNEY_R ([…], time 14 day): 1.3 g
- KIDNEY_TOTAL ([…], time 14 day): 2.6 g
- KIDNEY_L ([…], time 28 day): 1.5 g
- KIDNEY_R ([…], time 28 day): 1.5 g
- KIDNEY_TOTAL ([…], time 28 day): 3 g
- LIVER ([…], time 7 day): 12.7 g
- LIVER ([…], time 14 day): 15.1 g
- LIVER ([…], time 28 day): 17.9 g
- ALP ([…], time 7 day): 1216.2 IU/L
- ALT ([…], time 7 day): 59.4 IU/L
- AST ([…], time 7 day): 80.2 IU/L
- BUN ([…], time 7 day): 15.2 mg/dL
- CRE ([…], time 7 day): 0.2 mg/dL
- Ca ([…], time 7 day): 10.8 mg/dL
- Cl ([…], time 7 day): 105.8 meq/L
- DBIL ([…], time 7 day): 0.012 mg/dL
- GLC ([…], time 7 day): 189.8 mg/dL
- IP ([…], time 7 day): 7.9 mg/dL
- K ([…], time 7 day): 4.1 meq/L
- LDH ([…], time 7 day): 69.6 IU/L
- Na ([…], time 7 day): 142 meq/L
- PL ([…], time 7 day): 144 mg/dL
- RALB ([…], time 7 day): 2.6 g/dL
- TBIL ([…], time 7 day): 0.028 mg/dL
- TG ([…], time 7 day): 96.4 mg/dL
- TP ([…], time 7 day): 5.7 g/dL
- gamma-GTP ([…], time 7 day): 0.8 IU/L
- ALP ([…], time 14 day): 1413 IU/L
- ALT ([…], time 14 day): 51.8 IU/L
- AST ([…], time 14 day): 70.6 IU/L
- BUN ([…], time 14 day): 16.2 mg/dL
- CRE ([…], time 14 day): 0.2 mg/dL
- Ca ([…], time 14 day): 11 mg/dL
- Cl ([…], time 14 day): 104 meq/L
- DBIL ([…], time 14 day): 0.014 mg/dL
- GLC ([…], time 14 day): 182.4 mg/dL
- IP ([…], time 14 day): 7.2 mg/dL
- K ([…], time 14 day): 3.9 meq/L
- LDH ([…], time 14 day): 78.6 IU/L
- Na ([…], time 14 day): 142.6 meq/L
- PL ([…], time 14 day): 161 mg/dL
- RALB ([…], time 14 day): 2.7 g/dL
- TBIL ([…], time 14 day): 0.03 mg/dL
- TG ([…], time 14 day): 116 mg/dL
- TP ([…], time 14 day): 6 g/dL
- gamma-GTP ([…], time 14 day): 1.2 IU/L
- ALP ([…], time 28 day): 1072.4 IU/L
- ALT ([…], time 28 day): 46.4 IU/L
- AST ([…], time 28 day): 67.8 IU/L
- BUN ([…], time 28 day): 17.4 mg/dL
- CRE ([…], time 28 day): 0.2 mg/dL
- Ca ([…], time 28 day): 11.2 mg/dL
- Cl ([…], time 28 day): 104.6 meq/L
- DBIL ([…], time 28 day): 0.014 mg/dL
- GLC ([…], time 28 day): 184.2 mg/dL
- IP ([…], time 28 day): 6.7 mg/dL
- K ([…], time 28 day): 3.9 meq/L
- LDH ([…], time 28 day): 56.8 IU/L
- Na ([…], time 28 day): 145.6 meq/L
- PL ([…], time 28 day): 165.4 mg/dL
- RALB ([…], time 28 day): 2.8 g/dL
- TBIL ([…], time 28 day): 0.04 mg/dL
- TG ([…], time 28 day): 183.8 mg/dL
- TP ([…], time 28 day): 6.3 g/dL
- gamma-GTP ([…], time 28 day): 1 IU/L
